Tested on: control human primary myoblasts
Assay: Expression microarray of primary myoblasts transduced with lentivirus carrying DUX4-fl, DUX4-s or GFP
Settings: log2 fc vs lenti-GFP, 24 h
Description: Primary human myoblasts were collected and cultured as previously described (Snider et al., 2010). Primary myoblasts were maintained at or below 70% confluency for proliferation. For differentiation, cells were allowed to reach 95-100% confluency in growth medium. Once confluency was reached, the cells were changed to differentiation medium (F10 media supplemented with 1% horse serum, 10 μg/mL insulin, and 10 μg/mL transferrin, penicillin/streptomycin) and maintained for 4 days. Human RD cells were grown in DMEM in 10% bovine calf serum (Hyclone) and penicillin/streptomycin. The primary myoblasts were transduced with lentivirus carrying DUX-fl, DUX4- or GFP (MOI=15).
Expression microarrays were performed on the transduced cells at 24 hours after transduction as follows. […] Samples were analyzed by Illumina Human Whole Genome microarrays. Probe intensities were corrected, normalized, and summarized by the Lumi package of Bioconductor (Du et al., 2008). Differentially expressed genes were identified by the LIMMA package of Bioconductor (Wettenhall and Smyth, 2004). Gene set enrichment analysis (GSEA) was performed using the Bioconductor GOstats package (Falcon and Gentleman, 2007).

DUX4-fl: full-length DUX4 protein (SEQ ID NO:110), expressed from lentiviral or pCS2 vectors or in vitro translated
full_fc ART3: 4.363
full_fc C6orf148: 6.759
full_fc C12orf50: 4.522
full_fc CA2: 6.091
full_fc CCNA1: 7.526
full_fc CSAG3: 5.871
full_fc DEFB103A: 6.442
full_fc ENTPD8: 4.073
full_fc HBA1: 4.787
full_fc HBA2: 4.721
full_fc HIST2H3A: 4.945
full_fc KHDC1L: 8.012
full_fc LOC136157: 8.299
full_fc LOC196120: 8.179
full_fc LOC284428: 8.023
full_fc LOC340096: 7.382
full_fc LOC340970: 8.316
full_fc LOC342900: 7.391
full_fc LOC390031: 8.331
full_fc LOC391742: 5.733
full_fc LOC391764: 5.821
full_fc LOC391766: 5.724
full_fc LOC391767: 5.492
full_fc LOC391769: 8.19
full_fc LOC399939: 6.931
full_fc LOC399940: 4.727
full_fc LOC401860: 4.272
full_fc LOC402199: 4.392
full_fc LOC402207: 4.903
full_fc LOC440040: 7.534
full_fc LOC440563: 5.312
full_fc LOC441584: 7.781
full_fc LOC642127: 6.112
full_fc LOC642148: 6.851
full_fc LOC642219: 4.799
full_fc LOC642362: 8.016
full_fc LOC643263: 8.345
full_fc LOC643445: 8.25
full_fc LOC645558: 4.803
full_fc LOC645669: 8.202
full_fc LOC646066: 4.391
full_fc LOC646103: 4.658
full_fc LOC646698: 6.012
full_fc LOC646754: 5.11
full_fc LOC647827: 4.053
full_fc LOC651308: 8.169
full_fc LOC653192: 8.228
full_fc LOC653656: 7.897
full_fc LOC653657: 7.857
full_fc LOC654101: 5.034
full_fc LOC729368: 5.416
full_fc LOC729384: 6.832
full_fc LOC729458: 8.247
full_fc LOC729516: 5.955
full_fc LOC729694: 4.029
full_fc LOC729700: 4.817
full_fc LOC729706: 4.227
full_fc LOC729731: 5.007
full_fc LOC730974: 7.715
full_fc LOC732393: 4.637
full_fc LOC100131392: 6.976
full_fc LOC100131539: 4.629
full_fc LOC100133446: 4.635
full_fc LOC100133984: 6.204
full_fc LOC100134006: 7.087
full_fc LOC100134199: 8.048
full_fc MBD3L2: 7.623
full_fc NP: 6.961
full_fc NXF1: 4.233
full_fc OR2T34: 4.519
full_fc PPP2R2B: 4.13
full_fc PRAMEF1: 8.072
full_fc PRAMEF2: 6.439
full_fc PRAMEF4: 7.06
full_fc PRAMEF5: 7.35
full_fc PRAMEF6: 5.826
full_fc PRAMEF7: 7.631
full_fc PRAMEF9: 7.131
full_fc PRAMEF10: 6.064
full_fc PRAMEF11: 5.94
full_fc PRAMEF12: 7.802

Source: patent US20140242093A1, “METHODS AND COMPOSITIONS FOR MODULATING THE INNATE IMMUNE RESPONSE AND/OR MYOGENESIS IN A MAMMALIAN SUBJECT” (FRED HUTCHINSON CANCER RESEARCH CENTER, priority 2011, published 2014)
